In series [1] the test system is Trypanosoma cruzi. As to the kind of experiment: Antitrypanosomal activity against Trypanosoma cruzi MHOM/Pe/2011/Arequipa DTU 5 trypomastigotes infected in Balb/c mouse assessed as reduction in splenomegaly at 20 mg/kg, po once daily for 5 consecutive days starting from day 10 post infection measured on day 127 post infection. The class given is functional, organism-based.

Series [2] has as its system Trypanosoma cruzi. As to the kind of experiment: Antitrypanosomal activity against Trypanosoma cruzi MHOM/Pe/2011/Arequipa DTU 5 trypomastigotes infected in Balb/c mouse assessed as reduction in splenomegaly at 20 mg/kg, po once daily for 5 consecutive days starting from day 75 post infection measured on day 127 post infection. The class given is functional, organism-based.

In series [3] the test system is Trypanosoma cruzi. As to the kind of experiment: Antitrypanosomal activity against Trypanosoma cruzi MHOM/Pe/2011/Arequipa DTU 5 epimastigotes assessed as change in mitochondrial membrane potential at IC25 after 72 hrs by Rho123 staining based flow cytometry relative to control. It is filed as functional.
Series [4] deals with Trypanosoma cruzi. As to the kind of experiment: Induction of […] Trypanosoma cruzi MHOM/Pe/2011/Arequipa DTU 5 epimastigotes assessed as inhibition of DNA and RNA levels at IC25 after 72 hrs by acridine orange staining based flow cytometry relative to control. The class given is functional.
The nature of series [5]: Nephrotoxicity in Balb/c mouse infected with Trypanosoma cruzi MHOM/Pe/2011/Arequipa DTU 5 trypomastigotes assessed as decrease in serum urea level at 20 mg/kg, po once daily for 5 consecutive days starting from day 10 post infection measured on day 16 post infection relative to control. The class given is toxicity, organism-based. The conditions noted are these: in vivo. Set-up: scale not given: the % may be the effect or the level left.

Series [6] in a line: Nephrotoxicity in Balb/c mouse infected with Trypanosoma cruzi MHOM/Pe/2011/Arequipa DTU 5 trypomastigotes assessed as decrease in serum urea level at 20 mg/kg, po once daily for 5 consecutive days starting from day 75 post infection measured on day 81 post infection relative to control. It is filed as toxicity, organism-based. Further details: scale not given: the % may be the effect or the level left. As to conditions: in vivo.

Series [7] in a line: Nephrotoxicity in Balb/c mouse infected with Trypanosoma cruzi MHOM/Pe/2011/Arequipa DTU 5 trypomastigotes assessed as decrease in serum urea level at 20 mg/kg, po once daily for 5 consecutive days starting from day 75 post infection measured on day 127 post infection relative to control. Set-up: scale not given: the % may be the effect or the level left. As to conditions: in vivo. It is filed as toxicity, organism-based.

The nature of series [8]: Nephrotoxicity in Balb/c mouse infected with Trypanosoma cruzi MHOM/Pe/2011/Arequipa DTU 5 trypomastigotes assessed as decrease in serum uric acid level at 20 mg/kg, po once daily for 5 consecutive days starting from day 10 post infection measured on day 16 post infection relative to control. It is filed as toxicity, organism-based. Further details: scale not given: the % may be the effect or the level left. As to conditions: in vivo.

Series [9] in a line: Nephrotoxicity in Balb/c mouse infected with Trypanosoma cruzi MHOM/Pe/2011/Arequipa DTU 5 trypomastigotes assessed as serum uric acid level at 20 mg/kg, po once daily for 5 consecutive days starting from day 10 post infection measured on day 127 post infection (reference value: 4 mg/dl). The conditions noted are these: in vivo. The class given is toxicity, organism-based.
Series [10] can be described thus: Nephrotoxicity in Balb/c mouse infected with Trypanosoma cruzi MHOM/Pe/2011/Arequipa DTU 5 trypomastigotes assessed as decrease in serum uric acid level at 20 mg/kg, po once daily for 5 consecutive days starting from day 75 post infection measured on day 81 post infection relative to control. As to conditions: in vivo. Set-up: scale not given: the % may be the effect or the level left. The class given is toxicity, organism-based.

Series [11] can be described thus: Cardiotoxicity in Balb/c mouse infected with Trypanosoma cruzi MHOM/Pe/2011/Arequipa DTU 5 trypomastigotes assessed as change in ratio of creatine kinase in muscle to brain at 20 mg/kg, po once daily for 5 consecutive days starting from day 10 post infection measured on day 127 post infection by biochemical analysis (reference value: 496 U/L). As to conditions: in vivo. The class given is toxicity, organism-based.

A short description of series [12]: Cardiotoxicity in Balb/c mouse infected with Trypanosoma cruzi MHOM/Pe/2011/Arequipa DTU 5 trypomastigotes assessed as change in ratio of creatine kinase in muscle to brain at 20 mg/kg, po once daily for 5 consecutive days starting from day 75 post infection measured on day 127 post infection (reference value: 538 U/L). The conditions noted are these: in vivo. The class given is toxicity, organism-based.

Series [13] is described as follows: Cardiotoxicity in Balb/c mouse infected with Trypanosoma cruzi MHOM/Pe/2011/Arequipa DTU 5 trypomastigotes assessed as change in serum LDH level at 20 mg/kg, po once daily for 5 consecutive days starting from day 10 post infection measured on day 127 post infection by biochemical analysis (reference value: 2761 U/L). The conditions noted are these: in vivo. It is filed as toxicity, organism-based.

Series [14] is described as follows: Hepatotoxicity in Balb/c mouse infected with Trypanosoma cruzi MHOM/Pe/2011/Arequipa DTU 5 trypomastigotes assessed as increase in ratio of serum AST to GOT level at 20 mg/kg, po once daily for 5 consecutive days starting from day 10 post infection measured on day 127 post infection by biochemical analysis relative to control. The class given is toxicity, organism-based. As to conditions: in vivo.

Series [15] can be described thus: Hepatotoxicity in Balb/c mouse infected with Trypanosoma cruzi MHOM/Pe/2011/Arequipa DTU 5 trypomastigotes assessed as increase in ratio of serum AST to GOT level at 20 mg/kg, po once daily for 5 consecutive days starting from day 75 post infection measured on day 127 post infection relative to control. It is filed as toxicity, organism-based. The conditions noted are these: in vivo.

A short description of series [16]: Hepatotoxicity in Balb/c mouse infected with Trypanosoma cruzi MHOM/Pe/2011/Arequipa DTU 5 trypomastigotes assessed as increase in total bilirubin level at 20 mg/kg, po once daily for 5 consecutive days starting from day 10 post infection measured on day 16 post infection relative to control. The class given is toxicity, organism-based. The conditions noted are these: in vivo.

A short description of series [17]: Hepatotoxicity in Balb/c mouse infected with Trypanosoma cruzi MHOM/Pe/2011/Arequipa DTU 5 trypomastigotes assessed as increase in total bilirubin level at 20 mg/kg, po once daily for 5 consecutive days starting from day 10 post infection measured on day 127 post infection by biochemical analysis relative to control. It is filed as toxicity, organism-based. As to conditions: in vivo.

Series [18] is described as follows: Hepatotoxicity in Balb/c mouse infected with Trypanosoma cruzi MHOM/Pe/2011/Arequipa DTU 5 trypomastigotes assessed as increase in alkaline phosphatase level at 20 mg/kg, po once daily for 5 consecutive days starting from day 10 post infection measured on day 16 post infection relative to control. The conditions noted are these: in vivo. The class given is toxicity, organism-based.

In series [19] the test system is Trypanosoma cruzi. As to the kind of experiment: Trypanocidal activity against Trypanosoma cruzi MHOM/Pe/2011/Arequipa DTU 5 trypomastigotes derived from infected Balb/c albino mouse after 24 hrs by resazurin dye based assay. The class given is functional, organism-based. The conditions noted are these: MHOM/Pe/2011/Arequipa DTU 5, 24 h.
Series [20] deals with Trypanosoma cruzi. As to the kind of experiment: Trypanocidal activity against Trypanosoma cruzi TINF/CH/1956/Tulahuen DTU 6 trypomastigotes derived from infected Balb/c albino mouse after 24 hrs by resazurin dye based assay. The class given is functional, organism-based. The conditions noted are these: TINF/CH/1956/Tulahuen DTU 6, 24 h.
The next series deals with Vero. As to the kind of experiment: Cytotoxicity against African green monkey Vero cells assessed as reduction in cell viability after 48 to 72 hrs by resazurin dye based assay. As to conditions: Chlorocebus sabaeus.
In series [21] the test system is Trypanosoma cruzi. As to the kind of experiment: Antitrypanosomal activity against Trypanosoma cruzi MHOM/Pe/2011/Arequipa DTU 5 trypomastigotes infected in Balb/c mouse assessed as reduction in Ig-G level in serum at 20 mg/kg, po once daily for 5 consecutive days starting from day 10 post infection measured on day 100 post infection by ELISA. It is filed as functional, organism-based.

For series [22], the system named is Trypanosoma cruzi. As to the kind of experiment: Antitrypanosomal activity against Trypanosoma cruzi MHOM/Pe/2011/Arequipa DTU 5 trypomastigotes infected in Balb/c mouse assessed as reduction in Ig-G level in serum at 20 mg/kg, po pretreated once daily for 5 consecutive days starting from day 10 post infection followed by cyclophosphamide-induced immunosuppression on day 100 post infection every 4 days for a maximum of 3 doses measured on day 127 post infection by ELISA. The class given is functional, organism-based.

Series [23] can be described thus: Hepatotoxicity in Balb/c mouse infected with Trypanosoma cruzi MHOM/Pe/2011/Arequipa DTU 5 trypomastigotes assessed as decrease in ratio of serum AST to GOT level at 20 mg/kg, po once daily for 5 consecutive days starting from day 75 post infection measured on day 81 post infection relative to control. The class given is toxicity, organism-based. Set-up: scale not given: the % may be the effect or the level left. As to conditions: in vivo.

pIC50: −log10 of the molar value. Active and inactive are the calls of the source. No cut-off for these calls is given here.

With `O=C(Cn1ccnc1[N+](=O)[O-])NCc1ccccc1` [BENZNIDAZOLE], the outcome in the series with Trypanosoma cruzi [1] and in the series with Trypanosoma cruzi [2] was Active. Also, the Activity with Trypanosoma cruzi [3] is -35.4%; in [5], “<= 10%”; in [6], “<= 10%”; in series [7], “<= 10%”; in series [8], “<= 10%”; in series [9] it was 4 mg/dL. The Activity result in series [10] was “<= 10%”; in [11], 496 U/L; in [12] it was 538 U/L; in series [13], 2761 U/L; in series [14] it was over 40%; in series [15], “<= 10%”. Moreover, the figures for the Activity entry in series [16], in series [17] and in series [18] were “<= 20%”, “<= 10%” and “<= 20%”, respectively. Further, the “inhibition (INH)” value in the series with Trypanosoma cruzi [4] was determined as 22.4%.
Regarding `Cl.Cl.Cl.NCCN(CCN)CCNCc1ccc2c(c1)Cc1ccccc1-2`, the pIC50 was 4.83 in the series on Trypanosoma cruzi [19], 4.75 in the series on Trypanosoma cruzi [20] and 2.75 in the series with Vero. Besides, the result with Trypanosoma cruzi [21], in the series with Trypanosoma cruzi [22], in the series with Trypanosoma cruzi [1] and in the series with Trypanosoma cruzi [2] was Active. The Activity is 7.6% in the series with Trypanosoma cruzi [3]; “<= 10%” in series [5]; “<= 10%” in series [6]; “<= 10%” in [7]; “<= 10%” in [8]; 4 mg/dL in [9]. Also, the Activity entry in series [10] is reported as “<= 10%”; in series [11], 496 U/L; in series [12], 538 U/L; in series [13], 2761 U/L; in series [14], “<= 30%”; in series [23], “<= 10%”. Moreover, the Activity result in series [16] is recorded as “<= 30%”; in [17], “<= 10%”; in series [18] it was “<= 20%”. Besides, the “inhibition (INH)” value with Trypanosoma cruzi [4] is on record as 18.3%.
Turning to `Cl.Cl.Cl.Cl.Cl.Cl.c1ccc2nc(CNCCN(CCNCc3ccc4ccccc4n3)CCNCc3ccc4ccccc4n3)ccc2c1`, the pIC50 in the series with Trypanosoma cruzi [19] was 5.92; in the series on Trypanosoma cruzi [20], 5.72; in the series on Vero, 2.81. The outcome with Trypanosoma cruzi [21] and in the series on Trypanosoma cruzi [22] was inactive. Moreover, the outcome in the series with Trypanosoma cruzi [1] and with Trypanosoma cruzi [2] was Active. In addition, the Activity was -73.6% in the series with Trypanosoma cruzi [3]; “<= 10%” in [5]; “<= 10%” in series [6]; “<= 10%” in series [7]; “<= 10%” in series [8]; 4 mg/dL in series [9]. In addition, the Activity result in series [10] is given as “<= 10%”; in series [11], 496 U/L; in [12], 538 U/L; in series [13] it was 2761 U/L; in series [14] it was “<= 10%”; in series [23], “<= 10%”. The Activity entry was “<= 10%” in [15], “<= 30%” in series [16], “<= 10%” in series [17] and “<= 10%” in [18]. The “inhibition (INH)” value with Trypanosoma cruzi [4] is given as 56.7%.

Source of the values: ChEMBL document CHEMBL4411300 (Eur J Med Chem, 2019).
